In patent US20100168125A1, “INDOLIZINES AND AZA-ANALOG DERIVATIVES THEREOF AS CNS ACTIVE COMPOUNDS” (priority 2007, published 2010):
Where two headings read alike, the source gives them in different places.

Assays:
human D4.4 receptor = target: T1, human D4.4 receptor (Homo sapiens, UniProt P21917); assay: radioligand binding with [^3H]spiperone, D4.4
T1 construct: expressed in transfected cells; host or cells: Chinese hamster ovary (CHO) cells, membranes
T1 sequence (P21917 1-419): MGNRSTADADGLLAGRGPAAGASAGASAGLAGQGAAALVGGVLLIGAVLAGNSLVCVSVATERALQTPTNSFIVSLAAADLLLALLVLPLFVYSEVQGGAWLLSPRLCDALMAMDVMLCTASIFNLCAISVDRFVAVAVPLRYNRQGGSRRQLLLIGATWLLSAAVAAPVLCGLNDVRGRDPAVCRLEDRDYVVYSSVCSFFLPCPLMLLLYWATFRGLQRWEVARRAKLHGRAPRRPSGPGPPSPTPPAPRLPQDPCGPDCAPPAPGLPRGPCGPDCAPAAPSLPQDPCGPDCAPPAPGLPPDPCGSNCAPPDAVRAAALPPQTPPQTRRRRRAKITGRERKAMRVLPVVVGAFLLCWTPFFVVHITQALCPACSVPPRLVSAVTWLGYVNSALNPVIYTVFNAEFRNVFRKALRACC
Outline: (§1)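 Membranes from CHO cell lines expressing each human receptor subtype incubated with [^3H]spiperone. Test compounds spanned subnanomolar to micromolar concentrations in competition format.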

5-HT1A receptor = target: T2, 5-HT1A receptor (Sus scrofa, UniProt A0A4X1UTF5); assay: radioligand binding, porcine cortical membranes, [^3H]8-OH-DPAT and [^3H]WAY 100635
T2 construct: membrane preparations from porcine cortical material; from tissue; host or cells: porcine cerebral cortex membranes
T2 sequence (A0A4X1UTF5 1-422): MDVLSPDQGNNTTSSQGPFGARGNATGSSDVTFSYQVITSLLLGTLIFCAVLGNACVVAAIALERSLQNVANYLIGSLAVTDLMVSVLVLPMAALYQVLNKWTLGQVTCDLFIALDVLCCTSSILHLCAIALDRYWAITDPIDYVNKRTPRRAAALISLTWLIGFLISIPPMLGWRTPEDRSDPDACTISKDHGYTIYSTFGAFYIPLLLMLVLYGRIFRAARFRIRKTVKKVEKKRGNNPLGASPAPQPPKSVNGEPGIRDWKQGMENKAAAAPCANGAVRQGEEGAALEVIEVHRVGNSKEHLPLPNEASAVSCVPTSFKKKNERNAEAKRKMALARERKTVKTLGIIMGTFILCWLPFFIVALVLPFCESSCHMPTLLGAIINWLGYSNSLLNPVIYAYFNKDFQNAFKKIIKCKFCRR

[1] = target: dopamine D2short receptor (Homo sapiens, UniProt P14416); assay: [^35S]GTPγS-incorporation assay, intrinsic activity
human D2long receptor = target: T3, human D2long receptor (Homo sapiens, UniProt P14416); assay: radioligand binding with [^3H]spiperone, D2long; settings: read-out: Ki D2lo
T3 construct: expressed in transfected cells; host or cells: Chinese hamster ovary (CHO) cells, membranes
Outline: as §1

human D3 receptor = target: T4, human D3 receptor (Homo sapiens, UniProt P35462); assay: radioligand binding with [^3H]spiperone, D3
T4 construct: expressed in transfected cells; host or cells: Chinese hamster ovary (CHO) cells, membranes
Outline: as §1

human D2short receptor = target: T5, human D2short receptor (Homo sapiens, UniProt P14416); assay: radioligand binding with [^3H]spiperone, D2short; settings: read-out: Ki D2sh
T5 construct: expressed in transfected cells; host or cells: Chinese hamster ovary (CHO) cells, membranes
Outline: as §1

5-HT2 receptor = target: T6, 5-HT2 receptor (Sus scrofa, UniProt P50129); assay: radioligand binding, porcine cortical membranes, [^3H]ketanserin
T6 construct: membrane preparations from porcine cortical material; from tissue; host or cells: porcine cerebral cortex membranes

[2] = [^3H]spiperone, CHO membranes, mean of 2 to 4 experiments
[3] = read-out: D2short: [^35S]GTPγS intrinsic activity, % activity of quinpirol
[4] = porcine cortical membranes, [^3H]ketanserin
[5] = read-out: D2short: [^35S]GTPγS intrinsic activity
[6] = ether alkylene linker compounds

T4 sequence (P35462 whole entry): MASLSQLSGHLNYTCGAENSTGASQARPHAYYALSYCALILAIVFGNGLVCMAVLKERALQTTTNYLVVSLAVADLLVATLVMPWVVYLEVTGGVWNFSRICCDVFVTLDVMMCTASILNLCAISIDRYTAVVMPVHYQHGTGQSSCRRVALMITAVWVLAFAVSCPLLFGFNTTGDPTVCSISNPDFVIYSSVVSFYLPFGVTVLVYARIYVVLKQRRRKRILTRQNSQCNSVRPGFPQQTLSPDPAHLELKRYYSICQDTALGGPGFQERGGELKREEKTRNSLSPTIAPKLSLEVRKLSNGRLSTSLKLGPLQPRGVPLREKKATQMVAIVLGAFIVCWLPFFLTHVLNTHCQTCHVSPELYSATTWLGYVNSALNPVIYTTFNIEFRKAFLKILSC
T3 sequence (P14416 whole entry): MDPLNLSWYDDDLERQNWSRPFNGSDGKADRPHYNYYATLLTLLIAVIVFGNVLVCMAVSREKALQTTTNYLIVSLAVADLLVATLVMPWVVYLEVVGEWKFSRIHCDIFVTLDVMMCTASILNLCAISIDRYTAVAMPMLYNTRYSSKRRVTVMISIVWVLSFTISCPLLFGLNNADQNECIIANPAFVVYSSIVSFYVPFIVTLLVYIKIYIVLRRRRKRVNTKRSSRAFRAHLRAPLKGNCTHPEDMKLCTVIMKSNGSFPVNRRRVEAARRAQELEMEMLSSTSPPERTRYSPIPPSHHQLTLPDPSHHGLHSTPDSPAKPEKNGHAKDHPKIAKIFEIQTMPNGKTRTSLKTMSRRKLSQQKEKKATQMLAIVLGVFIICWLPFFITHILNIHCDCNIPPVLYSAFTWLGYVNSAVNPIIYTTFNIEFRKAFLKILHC
T6 sequence (P50129 whole entry): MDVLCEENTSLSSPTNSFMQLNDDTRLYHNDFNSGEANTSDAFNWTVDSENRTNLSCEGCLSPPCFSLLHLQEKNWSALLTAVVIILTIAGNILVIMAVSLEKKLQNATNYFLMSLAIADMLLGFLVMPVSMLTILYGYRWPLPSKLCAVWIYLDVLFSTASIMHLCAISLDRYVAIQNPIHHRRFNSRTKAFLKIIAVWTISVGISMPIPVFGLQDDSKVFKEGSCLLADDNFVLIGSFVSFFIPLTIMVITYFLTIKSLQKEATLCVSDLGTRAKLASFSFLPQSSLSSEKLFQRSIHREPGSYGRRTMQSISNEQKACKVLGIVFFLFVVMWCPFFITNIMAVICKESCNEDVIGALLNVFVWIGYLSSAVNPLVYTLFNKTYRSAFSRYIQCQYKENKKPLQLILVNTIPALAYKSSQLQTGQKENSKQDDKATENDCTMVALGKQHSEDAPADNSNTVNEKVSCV
T5 sequence (P14416 1-414 isoform P14416-2): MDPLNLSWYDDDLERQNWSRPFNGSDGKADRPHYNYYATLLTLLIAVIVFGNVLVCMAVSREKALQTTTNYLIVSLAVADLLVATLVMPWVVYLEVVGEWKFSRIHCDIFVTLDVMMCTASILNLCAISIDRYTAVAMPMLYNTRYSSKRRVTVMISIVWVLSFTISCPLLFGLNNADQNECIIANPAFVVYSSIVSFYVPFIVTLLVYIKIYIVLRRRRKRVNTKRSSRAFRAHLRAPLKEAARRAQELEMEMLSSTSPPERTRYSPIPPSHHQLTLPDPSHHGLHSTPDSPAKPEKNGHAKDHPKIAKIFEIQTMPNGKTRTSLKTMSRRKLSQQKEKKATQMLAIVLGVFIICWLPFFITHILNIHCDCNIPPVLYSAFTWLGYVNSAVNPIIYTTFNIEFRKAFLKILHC
Sequence of dopamine D2short receptor (P14416 1-414 isoform P14416-2): as above

Structure (SMILES)	Ki (human D4.4 receptor; [2])	Ki (5-HT1A receptor; porcine cortical membranes)	Emax [1, 3]	melting point	Ki (human D2long receptor; [2])	Ki (human D3 receptor; [2])	Ki (human D2short receptor; [2])	Ki (5-HT2 receptor; [4])	Emax [1, 5]	Ki (human D4.4 receptor; [6])	Ki (5-HT1A receptor; [6])	Ki (human D2long receptor; [6])	Ki (human D3 receptor; [6])	Ki (human D2short receptor; [6])	Ki (5-HT2 receptor; [6])	ratio D2lo/D3 (human D3 receptor; ratio of Ki values)
N#Cc1cnn2ccc(OCCCCN3CCN(c4ccccc4Cl)CC3)cc12 [Example E38, 5-[4-[4-(2-Chlorophenyl)piperazin-1-yl]butoxy]pyrazolo[1,5-a]pyridine-3-carbonitrile]	< 30 nM	< 30 nM	15 to 40%	119 °C	< 30 nM	< 30 nM	< 30 nM	30 to 300 nM								
COc1ccc(N2CCN(CCCCOc3ccn4nccc4c3)CC2)cc1 [Example E18]	301 to 3000 nM	30 to 300 nM	< 15%	111 °C	> 3000 nM	30 to 300 nM	301 to 3000 nM	301 to 3000 nM								
O=Cc1cnn2ccc(OCCCCN3CCN(c4ccccc4Cl)CC3)cc12 [Example E23, 5-[4-[4-(2-Chlorophenyl)piperazin-1-yl]butoxy]pyrazolo[1,5-a]pyridine-3-carbaldehyde]	< 30 nM	< 30 nM	15 to 40%	116 °C	< 30 nM	< 30 nM	< 30 nM	301 to 3000 nM								
Clc1ccc(N2CCN(CCCCOc3ccn4nccc4c3)CC2)cc1 [Example E19, 5-[4-[4-(4-Chlorophenyl)piperazin-1-yl]butoxy]pyrazolo[1,5-a]pyridine]	30 to 300 nM	30 to 300 nM	15 to 40%	125 °C	30 to 300 nM	30 to 300 nM	30 to 300 nM	301 to 3000 nM								
COC(=O)c1cnn2ccc(OCCCCN3CCN(c4cccc(Cl)c4Cl)CC3)cc12 [Example E39, Methyl 5-[4-[4-(2,3-dichlorophenyl)piperazin-1-yl]butoxy]pyrazolo[1,5-a]pyridine-3-carboxylate]	< 30 nM	< 30 nM	< 15%	73 °C	< 30 nM	< 30 nM	< 30 nM	30 to 300 nM								
Clc1cccc(N2CCN(CCCCOc3cccn4nccc34)CC2)c1Cl [Example E7, 4-[4-[4-(2,3-Dichlorophenyl)piperazin-1-yl]butoxy]pyrazolo[1,5-a]pyridine]	< 30 nM	30 to 300 nM	< 15%	91 °C	< 30 nM	< 30 nM	< 30 nM	301 to 3000 nM								
Clc1cccc(N2CCN(CCCCOc3ccn4ncc(Cl)c4c3)CC2)c1Cl [Example E45, 3-Chloro-5-[4-[4-(2,3-dichlorophenyl)piperazin-1-yl]butoxy]pyrazolo[1,5-a]pyridine]	30 to 300 nM	30 to 300 nM	15 to 40%	133 °C	30 to 300 nM	< 30 nM	30 to 300 nM	301 to 3000 nM								
Clc1cccc(N2CCN(CCCCOc3ccc4ccnn4c3)CC2)c1Cl [Example E51, 6-[4-[4-(2,3-Dichlorophenyl)piperazin-1-yl]butoxy]pyrazolo[1,5-a]pyridine]	< 30 nM	30 to 300 nM	< 15%	97 °C	< 30 nM	< 30 nM	< 30 nM	30 to 300 nM								
Clc1ccccc1N1CCN(CCCCOc2cccn3nccc23)CC1 [Example E9, 4-[4-[4-(2-Chlorophenyl)piperazin-1-yl]butoxy]pyrazolo[1,5-a]pyridine]	< 30 nM	< 30 nM		88 °C	< 30 nM	< 30 nM	< 30 nM	301 to 3000 nM	< 15%							
Clc1cccc(N2CCN(CCCCOc3cc4ccccn4n3)CC2)c1Cl [Example E1, 2-[4-[4-(2,3-Dichlorophenyl)piperazin-1-yl]butoxy]pyrazolo[1,5-a]pyridine]	30 to 300 nM	< 30 nM	< 15%	161 °C	< 30 nM	< 30 nM	< 30 nM	30 to 300 nM		33 nM	17 nM	9.4 nM	3.5 nM	10 nM	150 nM	
O=Cc1cnn2ccc(COCCCN3CCN(c4cccc(Cl)c4Cl)CC3)cc12 [Example E14, 5-[3-[4-(2,3-Dichlorophenyl)piperazin-1-yl]propoxymethyl]pyrazolo[1,5-a]pyridine-3-carbaldehyde]	30 to 300 nM	< 30 nM	15 to 40%	90 °C	< 30 nM	< 30 nM	< 30 nM	30 to 300 nM								
Oc1ccc(N2CCN(CCCCOc3ccn4nccc4c3)CC2)cc1 [Example E20, 5-[4-[4-(4-Hydroxyphenyl)piperazin-1-yl]butoxy]pyrazolo[1,5-a]pyridine]	301 to 3000 nM	> 3000 nM	15 to 40%	124 °C	30 to 300 nM	30 to 300 nM	30 to 300 nM	301 to 3000 nM								
Clc1ccccc1N1CCN(CCCCOc2ccn3nccc3c2)CC1 [Example E17, 5-[4-[4-(2-Chlorophenyl)piperazin-1-yl]butoxy]pyrazolo[1,5-a]pyridine]	30 to 300 nM	30 to 300 nM	15 to 40%	163 °C	< 30 nM	< 30 nM	< 30 nM	301 to 3000 nM								
Clc1cccc(N2CCN(CCCCOc3ccn4ncc(I)c4c3)CC2)c1Cl [Example E48, 5-[4-[4-(2,3-Dichlorophenyl)piperazin-1-yl]butoxy]3-iodo-pyrazolo[1,5-a]pyridine]	30 to 300 nM	301 to 3000 nM	< 15%	110 °C	30 to 300 nM	< 30 nM	< 30 nM	301 to 3000 nM								
COC(=O)c1cnn2ccc(OCCCCN3CCN(c4ccccc4OC)CC3)cc12 [Example E40, Methyl 5-[4-[4-(2-methoxyphenyl)piperazin-1-yl]butoxy]pyrazolo[1,5-a]pyridine-3-carboxylate]	< 30 nM	< 30 nM	15 to 40%	75 °C	< 30 nM	< 30 nM	< 30 nM	30 to 300 nM								
COc1ccccc1N1CCN(CCCCOc2nn3ccccc3c2C=O)CC1 [Example E5, 2-[4-[4-(2-Methoxyphenyl)piperazin-1-yl]butoxy]pyrazolo[1,5-a]pyridine-3-carbaldehyde]	< 30 nM	< 30 nM		101 °C	< 30 nM	< 30 nM	< 30 nM	301 to 3000 nM	15 to 40%							
COc1ccccc1N1CCN(CCCCOc2ccn3ncc(Cl)c3c2)CC1 [Example E46, 3-Chloro-5-[4-[4-(2-methoxyphenyl)piperazin-1-yl]butoxy]pyrazolo[1,5-a]pyridine]	< 30 nM	< 30 nM	< 15%	68 °C	< 30 nM	< 30 nM	< 30 nM	301 to 3000 nM		3.2 nM	8.8 nM	6.8 nM	4.6 nM	4.3 nM	910 nM	1.5
Clc1cccc(N2CCN(CCCCOc3cccc4ccnn34)CC2)c1Cl [Example E57, 7-[4-[4-(2,3-Dichlorophenyl)piperazin-1-yl]butoxy]pyrazolo[1,5-a]pyridine]	30 to 300 nM	30 to 300 nM	15 to 40%	74 °C	30 to 300 nM	< 30 nM	< 30 nM	30 to 300 nM								
